# Experimental data published in patent publication US12466855B2, “Labeled oxytocin and method of manufacture and use” (TONIX PHARMA LIMITED, priority 2018, dated 2025).
# How the values were obtained:
# [1] = PET/MRI distribution of ^13N-oxytocin following IV administration in rats; assay type: in vivo; details: female Sprague Dawley rat, 13.3 MBq in the tail vein (IV), 30 min dynamic PET, FIG. 2
# Procedure: Anesthetised rats are scanned using a microPET scanner (nanoscan microPET/IT MRI, Mediso Ltd, Budapest, Hungary). Body temperature is maintained and circulation and respiration are monitored. First, a structural T2-weighted MRI scan is obtained for attenuation correction. Subsequently, the rat is injected through the tail vein with the ^13N-oxytocin radiotracer. […] The list-mode data of the emission scans are split into a dynamic sequence of frames. The data are reconstructed per time frame employing an iterative reconstruction. Appropriate correction factors are applied producing quantitative dynamic images (matrix size (x, y, z) 93, 93, 120. Voxel size 0.4 mm. 3D Tera-Tomo reconstruction with Monte Carlo based estimation, attenuation and scatter correction). […] Sprague-Dawley rat MRI brain atlas using PMOD software (version 3.7, PMOD Technologies Ltd, Zurich, Switzerland), a commercially available software package for biomedical image quantification, to acquire data in regions of interest. The results are expressed as dimensionless standardized uptake values (SUVs): [tissue activity concentration (MBq/g)×body weight (g)/injected dose (MBq)].
# In one study, female Sprague Dawley rats were housed two per cage under a 12 h light/12 h dark cycle at an average temperature of 21° C. and humidity of 55%, with ad libitum access to food and water. […]
# [2] = PET/MR distribution of ^13N-oxytocin following nasal administration in rats; assay type: in vivo, rat; details: intranasal, approx. 100 μl (1-2 MBq) per nostril in 10% ethanol/90% saline, 60 min PET scan, FIG. 3
# Procedure: Anesthetised rats are scanned using a microPET scanner (nanoscan microPET/IT MRI, Mediso Ltd, Budapest, Hungary). Body temperature is maintained and circulation and respiration are monitored. First, a structural T2-weighted MRI scan is obtained for attenuation correction. Subsequently, the rat is injected through the tail vein with the ^13N-oxytocin radiotracer. A list-mode protocol is used with a 60-min acquisition time. The list-mode data of the emission scans are split into a dynamic sequence of frames. The data are reconstructed per time frame employing an iterative reconstruction. Appropriate correction factors are applied producing quantitative dynamic images (matrix size (x, y, z) 93, 93, 120. Voxel size 0.4 mm. 3D Tera-Tomo reconstruction with Monte Carlo based estimation, attenuation and scatter correction). A summed PET image of each 60 min scan is co-registered to an average Sprague-Dawley rat MRI brain atlas using PMOD software (version 3.7, PMOD Technologies Ltd, Zurich, Switzerland), a commercially available software package for biomedical image quantification, to acquire data in regions of interest. The results are expressed as dimensionless standardized uptake values (SUVs): [tissue activity concentration (MBq/g)×body weight (g)/injected dose (MBq)].
# The distribution of ^13N-oxytocin following nasal administration in rats is tested. […]
# [3] = human patients, migraine headache pain, after administration; cited from earlier work
compound,measurement,setting,value
"CC[C@H](C)[C@@H]1NC(=O)[C@H](Cc2ccc(O)cc2)NC(=O)[C@@H](N)CSSC[C@@H](C(=O)N2CCC[C@H]2C(=O)N[C@@H](CC(C)C)C(=O)NCC(N)=O)NC(=O)[C@H](CC(N)=O)NC(=O)[C@H](CCC(N)=O)NC1=O [oxytocin, Cys-Tyr-Ile-Gln-Asn-Cys-Pro-Leu-Gly]",brain uptake / CNS penetration (PET and MR scans),[1],lack of CNS penetration
same,brain uptake / CNS penetration (PET/MR overlay),[2],lack of CNS penetration
same,initial period before onset of significant analgesia,[3],up to 2 hours
same,time to maximal analgesic effect,[3],4 h
